From ChEMBL document CHEMBL5126512, “Current status of carbazole hybrids as anticancer agents” (Eur J Med Chem, 2022) come the findings set out here.

A value given as a limit tells only on which side of the number the result lay.

Series [1] relates to AGS. Briefly: Antiproliferative activity against human AGS cells assessed as cell growth inhibition measured after 72 hrs by MTT assay. It is filed as functional, cell-based.
Series [2] relates to SGC-7901. Briefly: Antiproliferative activity against human SGC-7901 cells assessed as cell growth inhibition measured after 72 hrs by MTT assay. It is filed as functional, cell-based. To be noted: SGC-7901, 72 h.
Series [3] relates to HepG2. Briefly: Cytotoxicity against human HepG2 cells assessed as cell growth inhibition measured after 48 hrs by MTT assay. It is filed as functional, cell-based. Particulars: HepG2, 48 h.
Series [4] relates to SMMC-7721. Briefly: Cytotoxicity against human SMMC-7721 cells assessed as cell growth inhibition measured after 48 hrs by MTT assay. It is filed as functional, cell-based. To be noted: SMMC-7721, 48 h.
Series [5] relates to Hep 3B2. Briefly: Cytotoxicity against human Hep3B cells assessed as cell growth inhibition measured after 48 hrs by MTT assay. It is filed as functional, cell-based.
A short description of series [6]: Cytotoxicity against human QSG7701 cells assessed as cell growth inhibition measured after 48 hrs by MTT assay. It is filed as toxicity, cell-based.
Series [7] relates to HCT-116. Briefly: Antiproliferative activity against human HCT-116 cells assessed as cell growth inhibition measured after 48 hrs by MTT assay. It is filed as functional, cell-based. Particulars: HCT-116, 48 h.
Series [8] concerns HT-29. Briefly: Antiproliferative activity against human HT-29 cells assessed as cell growth inhibition measured after 48 hrs by MTT assay. It is filed as functional, cell-based. To be noted: HT-29, 48 h.
Series [9] relates to SW837. Briefly: Antiproliferative activity against human SW837 cells assessed as cell growth inhibition measured after 48 hrs by MTT assay. The series is classed as functional, cell-based. To be noted: SW837, 48 h.
The test system of series [10] is MDA-MB-231. Briefly: Antiproliferative activity against human MDA-MB-231 cells assessed as cell growth inhibition measured after 48 hrs by MTT assay. The series is classed as functional, cell-based. Particulars: MDA-MB-231, 48 h.
In series [11] the test system is MCF7. Briefly: Cytotoxicity against human MCF7 cells assessed as cell growth inhibition measured after 48 hrs by MTT assay. It is filed as functional, cell-based. To be noted: MCF7, 48 h.
The test system of series [12] is MDA-MB-231. Briefly: Cytotoxicity against human MDA-MB-231 cells assessed as cell growth inhibition measured after 48 hrs by MTT assay. The series is classed as functional, cell-based. Particulars: MDA-MB-231, 48 h.
Series [13] relates to HeLa. Briefly: Cytotoxicity against human HeLa cells assessed as cell growth inhibition measured after 48 hrs by MTT assay. It is filed as functional, cell-based.
Series [14] can be described thus: Cytotoxicity against human HUVEC cells assessed as cell growth inhibition measured after 48 hrs by MTT assay. The series is classed as toxicity, cell-based.
Series [15] deals with MCF7. Briefly: Potency index, ratio of Doxorubicin IC50 to compound IC50 for cytotoxicity against human MCF7 cells by MTT assay. The series is classed as functional.
The test system of series [16] is NCI-H1299. Briefly: Cytotoxicity against human NCI-H1299 cells assessed as cell growth inhibition by Trypan blue staining based analysis. It is filed as functional. To be noted: pooled result: one value given for 6 cell lines, strains, targets or settings.
In series [17] the test system is A549. Briefly: Antitumour activity against human A549 cells xenografted in mouse assessed as reduction in tumor volume at 3 mg/kg relative to control. The series is classed as functional. Also noted: scale not given: the % may be the effect or the level left.
The subject of series [18] is A549. Briefly: Antiproliferative activity against human A549 cells assessed as cell growth inhibition measured after 48 hrs by MTT assay. The series is classed as functional, cell-based. To be noted: A549, 48 h.
In series [19] the test system is MCF7. Briefly: Antiproliferative activity against human MCF7 cells assessed as cell growth inhibition measured after 48 hrs by MTT assay. The series is classed as functional, cell-based. To be noted: MCF7, 48 h.
Series [20] is described as follows: Anticancer activity against human CLS-354 cells assessed as cell growth inhibition measured after 24 hrs by MTT assay. It is filed as functional, cell-based. Particulars: CLS-354, 24 h.
The nature of series [21]: Anticancer activity against cisplatin/camptothecin resistant human CLS-354 cells assessed as cell growth inhibition measured after 24 hrs by MTT assay. The series is classed as functional, cell-based. Particulars: CLS-354, 24 h.
Series [22] can be described thus: Potency index, ratio of cisplatin IC50 to compound IC50 for anticancer activity against cisplatin/camptothecin resistant human CLS-354 cells by MTT assay. It is filed as functional.
Series [23] relates to HeLa. Briefly: Cytotoxicity against human HeLa cells assessed as cell growth inhibition by MTT assay. It is filed as functional, cell-based.
Series [24] has as its system HCT-116. Briefly: Antitumor activity against human HCT-116 cells xenografted in BALB/c nu/nu mouse assessed as reduction in tumor volume at 100 mg/kg/day, ip administered for 20 days measured by caliper relative to control. Details: scale not given: the % may be the effect or the level left. It is filed as functional. Particulars: time 20 day.
Series [25] in a line: Cytotoxicity against human Kidney epithelial cells assessed as cell growth inhibition measured after 24 hrs by XTT assay. The series is classed as toxicity, cell-based.

As for `N=C(N)N/N=C/c1ccc2c(c1)c1ccccc1n2Cc1ccccc1F`, the half-inhibitory concentration (IC50) was found to be 400 nM in [1] and 1500 nM in [2].
Regarding `CCOc1ccc2c(c1)c1c(n2CCN2CCNCC2)-c2cc(C(C)C)ccc2[C@@]2(C)CCC[C@@](C)(C(=O)OC)C12` (stereo partly specified), the IC50 in series [3], in series [4] and in series [5] was 510 nM in each case. Also, in [6], the IC50 at 48 h amounted to 12.5 µM.
Regarding `Oc1cc2[nH]c3ccccc3c2cc1CN1CCCCC1`, the IC50 was determined as 18 µM in series [7], 18 µM in series [8], 16 µM in series [9] and 16 µM in [10].
Regarding `CCCCCn1cc(CN2C(=O)C3(C(C#N)=C(N)Oc4ccc5c([nH]c6ccccc65)c43)c3ccccc32)nn1` (stereo unspecified), the IC50 in series [11], in [12] and in series [13] was 4.8 µM throughout. Further, the IC50 at 48 h in series [14] came to 4.8 µM.
With `N#CC1=C(N)Oc2ccc3c([nH]c4ccccc43)c2C12C(=O)N(Cc1cn(Cc3ccc([N+](=O)[O-])cc3)nn1)c1ccccc12` (stereo unspecified), in series [11], the IC50 was determined as 2.13 µM. For the same compound, in series [15], the “Ratio IC50” value turned out to be 2.1.
Turning to `CCn1c2ccccc2c2cc(NC(=O)NCCN3CCN(C(=O)c4ccco4)CC3)ccc21`, in [16], the IC50 is 1780 nM. Further, the Activity in series [17] amounted to 65%.
As for `Cn1c2ccccc2c2cc(C3NCCc4c3[nH]c3ccccc43)ccc21` (stereo unspecified), the IC50 is 5.04 µM in series [18] and 5.48 µM in series [19].
Consider `CC(C)=CCC[C@@]1(C)C=Cc2c(ccc3c2[nH]c2cc(O)c(C)cc23)O1`, for which the values for the IC50 in [20] and in series [21] were 14.4 µM and 16 µM, respectively. Further, in series [22], the “Ratio IC50” value worked out at 2.1.
In the case of `CCn1c2ccccc2c2cc(/C=N/NC(=O)c3ccccc3Cl)ccc21`, the IC50 in series [23] was 3.12 µM. The Activity in series [24] is reported as 35%.
As for `CN(C)CCCNC(=O)c1ccc(-n2cc(-c3ccc4c(c3)c3ccccc3n4CCCN(C)C)nn2)cc1`, the IC50 at 24 h in series [25] is > 30 µM.
